Experimental data as given in patent US4150970A, “Growth regulator for plants” (Board of Trustees of Michigan State University, priority 1977, dated 1979).

Assays:
[1] = tested on: oat first-internode; conditions: published reports; cited from earlier work
[2] = tested on: plants; test: Plant growth regulation (general statement); assay type: in vivo; conditions: analogous compounds
[3] = tested on: tobacco callus; test: Growth of tobacco callus, triacontanol and octocosanol (Example XIX, FIG. 6); assay type: cell-based, Nicotiana tabacum, var. Wisconsin 38; conditions: four concentrations, 10 days
Protocol: Cell cultures were separately grown in disposable petri dishes.
1. Haploid tobacco (Nicotiana tabacum, var. Wisconsin 38)
The cultures were grown on the basic medium of mineral salts described by Linsmaier and Skoog (Physiol. Plant, […] (1965)). Vitamins and hormones varied for each tissue (Table X-1) to maintain the tissues in an undifferentiated state. For all of the tissues inositol was 100 mg/liter and agar 1%. Sucrose was 3% for all but the bean which was 2%.
Callus was produced from pith for tobacco, potato and tomato. Bean callus was produced from hypocotyl sections and barley callus from immature ovarian tissue. Subcultures were maintained on the appropriate media.
Stock solutions of triacontanol were prepared at a concentration of 100 μg/ml. The solvent used was glass distilled benzene. The lower concentrations were obtained by serial dilutions. Treatments were applied to 4.5 cm Whatman #1 filter paper disks in 100 μl aliquots. Controls received 100 μl of glass distilled benzene. The solvent was evaporated for approximately 15 minutes and the filter papers were then placed on the agar medium.
Callus tissue was then broken into pieces of approximately the same size (10 mg) and placed in the petri dishes on the treated filter paper (one piece per dish). For experiments conducted in the light the intensity was approximately 2.0 microwatts/cm^2 -namometer. Fresh weight measurements were made after 12 days of growth.
A stock solution of octocosanol (CH3 (CH2)26 CH2 OH was prepared in the same manner as the triacontanol solutions above described.
The effect of four concentrations of triacontanol and octocosanol on tobacco callus was determined, using the materials and procedures above described in this Example. The dishes were tared and weighed at the end of 10 days. The results are illustrated in FIG. 6 of the drawings.

| Compound | growth, oat first-internode method [1] | effect as plant growth regulator [2] | growth over the control [3] |
| --- | --- | --- | --- |
| CCCCCCCCCCCCCCCCCCCCCCO [1-docosanol, reference compound] | increase growth | – | – |
| CCCCCCCCCCCCCCCCCCCCCCCCCCCC(=O)O [octocosanoic acid] | – | ineffective | – |
| CCCCCCCCCCCCCCCCCCCCCCCCCCCCO [octocosanol, reference compound] | – | ineffective | no effect on growth |
| CCCCCCCCCCCCCCCCCCCCCCCCCCCCCC [triacontane] | – | ineffective | – |
